# Experimental data published in patent US6358885B1, “Substituted phenylheterocyclic herbicides” (Mississippi State University, priority 1992, dated 2002).
# Experiments:
# morningglory [1] = test: Test B preemergence/postemergence greenhouse plant response rating 0 to 10; type: in vivo, Ipomoea hederacea; conditions: 0 to 10 scale
# Method in brief: (§1)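 Postemergence treatment of plants two to eighteen cm tall ran alongside preemergence treatment of planted seed, each using compound in a non-phytotoxic solvent.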
# rape = test: Test C preemergence/postemergence greenhouse plant response rating 0 to 100; type: in vivo, Brassica napus; conditions: POSTEMERGENCE; for Plant response rating, Rape: 0 to 100 scale
# Method in brief: (§2)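 Compounds in non-phytotoxic solvent applied preemergence to sandy loam one day after planting, postemergence at the 1–4 leaf stage, or to ~2.5 cm floodwater over silt loam.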
# cocklebur = test: Test B preemergence/postemergence greenhouse plant response rating 0 to 10; type: in vivo, Xanthium pensylvanicum; conditions: 0 to 10 scale
# Method in brief: as §1
# bedstraw = test: as above; type: in vivo, Galium aparine; conditions: 0 to 10 scale
# Method in brief: as §1
# morningglory [2] = test: Test C preemergence/postemergence greenhouse plant response rating 0 to 100; type: in vivo, Ipomoea hederacea; conditions: POSTEMERGENCE; for Plant response rating, Morningglory: 0 to 100 scale
# Method in brief: as §2
# velvetleaf = test: Test B preemergence/postemergence greenhouse plant response rating 0 to 10; type: in vivo, Abutilon theophrasti; conditions: 0 to 10 scale
# Method in brief: as §1
# barley [3] = test: Test C preemergence/postemergence greenhouse plant response rating 0 to 100; type: in vivo, Hordeum vulgare; conditions: POSTEMERGENCE; for Plant response rating Barley Igri: 0 to 100 scale
# Method in brief: as §2
# giant foxtail [4] = test: as above; type: in vivo, Setaria faberii; conditions: POSTEMERGENCE; for Plant response rating, Giant foxtail: 0 to 100 scale
# Method in brief: as §2
# lambsquarters = test: Test B preemergence/postemergence greenhouse plant response rating 0 to 10; type: in vivo, Chenopodium album; conditions: 0 to 10 scale
# Method in brief: as §1
# giant foxtail [5] = test: as above; type: in vivo, Setaria faberii; conditions: 0 to 10 scale
# Method in brief: as §1
# cheatgrass = test: as above; type: in vivo, Bromus secalinus; conditions: 0 to 10 scale
# Method in brief: as §1
# soybean [6] = test: Test C preemergence/postemergence greenhouse plant response rating 0 to 100; type: in vivo, Glycine max; conditions: POSTEMERGENCE; for Plant response rating, Soybean: 0 to 100 scale
# Method in brief: as §2
# sorghum = test: as above; type: in vivo, Sorghum bicolor; conditions: POSTEMERGENCE; for Plant response rating, Sorghum: 0 to 100 scale
# Method in brief: as §2
# chickweed = test: as above; type: in vivo, Stellaria media; conditions: POSTEMERGENCE; for Plant response rating, Chickweed: 0 to 100 scale
# Method in brief: as §2
# rice = test: Test C flood test plant response rating 0 to 100; type: in vivo, Oryza sativa; conditions: for Plant response rating Rice Japonica: flood test species listed under POSTEMERGENCE, 0 to 100 scale
# Method in brief: as §2
# blackgrass = test: Test C preemergence/postemergence greenhouse plant response rating 0 to 100; type: in vivo, Alopecurus myosuroides; conditions: POSTEMERGENCE; for Plant response rating, Blackgrass: 0 to 100 scale
# Method in brief: as §2
# soybean [7] = test: Test B preemergence/postemergence greenhouse plant response rating 0 to 10; type: in vivo, Glycine max; conditions: 0 to 10 scale
# Method in brief: as §1
# barley [8] = test: as above; type: in vivo, Hordeum vulgare; conditions: 0 to 10 scale
# Method in brief: as §1
smiles,measurement,setting,value
Fc1cc(Cl)c(OCCCl)cc1-c1nn2c(c1Cl)CCCC2 [Compound 49],"Plant response rating, Morningglory","morningglory [1]; POSTEMERGENCE, Rate 50 g/ha",10
same,"Plant response rating, Morningglory","morningglory [1]; PREEMERGENCE, Rate 50 g/ha",1
same,"Plant response rating, Morningglory","morningglory [1]; Rate 200 g/ha, POSTEMERGENCE",10
same,"Plant response rating, Morningglory","morningglory [1]; Rate 200 g/ha, PREEMERGENCE",6
same,"Plant response rating, Rape",rape; 62 g/ha,70
same,"Plant response rating, Rape",rape; 250 g/ha,100
same,"Plant response rating (0 to 100), Rape",rape; Rate 4 g/ha,50
same,"Plant response rating (0 to 100), Rape",rape; Rate 16 g/ha,60
same,"Plant response rating, Cocklebur","cocklebur; POSTEMERGENCE, Rate 50 g/ha",9
same,"Plant response rating, Cocklebur","cocklebur; POSTEMERGENCE, Rate 200 g/ha",8
same,"Plant response rating, Cocklebur","cocklebur; PREEMERGENCE, Rate 50 g/ha",0
same,"Plant response rating, Cocklebur","cocklebur; Rate 200 g/ha, PREEMERGENCE",0
same,"Plant response rating, Bedstraw","bedstraw; POSTEMERGENCE, Rate 50 g/ha",9
same,"Plant response rating, Bedstraw","bedstraw; POSTEMERGENCE, Rate 200 g/ha",9
same,"Plant response rating, Bedstraw","bedstraw; PREEMERGENCE, Rate 50 g/ha",8
same,"Plant response rating, Bedstraw","bedstraw; Rate 200 g/ha, PREEMERGENCE",9
same,"Plant response rating, Morningglory",morningglory [2]; 62 g/ha,100
same,"Plant response rating, Morningglory",morningglory [2]; 250 g/ha,100
same,"Plant response rating (0 to 100), Morningglory",morningglory [2]; Rate 4 g/ha,40
same,"Plant response rating (0 to 100), Morningglory",morningglory [2]; Rate 16 g/ha,50
same,"Plant response rating, Velvetleaf","velvetleaf; POSTEMERGENCE, Rate 50 g/ha",9
same,"Plant response rating, Velvetleaf","velvetleaf; PREEMERGENCE, Rate 50 g/ha",0
same,"Plant response rating, Velvetleaf","velvetleaf; Rate 200 g/ha, POSTEMERGENCE",10
same,"Plant response rating, Velvetleaf","velvetleaf; Rate 200 g/ha, PREEMERGENCE",1
same,Plant response rating Barley Igri,barley [3]; 62 g/ha,40
same,Plant response rating Barley Igri,barley [3]; 250 g/ha,60
same,"Plant response rating (0 to 100), Barley Igri",barley [3]; Rate 4 g/ha,10
same,"Plant response rating (0 to 100), Barley Igri",barley [3]; Rate 16 g/ha,20
same,"Plant response rating, Giant foxtail",giant foxtail [4]; 62 g/ha,50
same,"Plant response rating, Giant foxtail",giant foxtail [4]; 250 g/ha,60
same,"Plant response rating (0 to 100), Giant foxtail",giant foxtail [4]; Rate 4 g/ha,30
same,"Plant response rating (0 to 100), Giant foxtail",giant foxtail [4]; Rate 16 g/ha,40
same,"Plant response rating, Lambsquarter","lambsquarters; PREEMERGENCE, Rate 50 g/ha",10
same,"Plant response rating, Lambsquarter","lambsquarters; Rate 200 g/ha, POSTEMERGENCE",10
same,"Plant response rating, Lambsquarter","lambsquarters; Rate 200 g/ha, PREEMERGENCE",10
same,"Plant response rating, Giant foxtail","giant foxtail [5]; POSTEMERGENCE, Rate 50 g/ha",4
same,"Plant response rating, Giant foxtail","giant foxtail [5]; PREEMERGENCE, Rate 50 g/ha",4
same,"Plant response rating, Giant foxtail","giant foxtail [5]; Rate 200 g/ha, POSTEMERGENCE",6
same,"Plant response rating, Giant foxtail","giant foxtail [5]; Rate 200 g/ha, PREEMERGENCE",10
same,"Plant response rating, Cheatgrass","cheatgrass; POSTEMERGENCE, Rate 50 g/ha",4
same,"Plant response rating, Cheatgrass","cheatgrass; POSTEMERGENCE, Rate 200 g/ha",7
same,"Plant response rating, Cheatgrass","cheatgrass; PREEMERGENCE, Rate 50 g/ha",0
same,"Plant response rating, Cheatgrass","cheatgrass; Rate 200 g/ha, PREEMERGENCE",2
same,"Plant response rating, Soybean",soybean [6]; 62 g/ha,70
same,"Plant response rating, Soybean",soybean [6]; 250 g/ha,80
same,"Plant response rating (0 to 100), Soybean",soybean [6]; Rate 4 g/ha,40
same,"Plant response rating (0 to 100), Soybean",soybean [6]; Rate 16 g/ha,50
same,"Plant response rating, Sorghum",sorghum; 62 g/ha,50
same,"Plant response rating, Sorghum",sorghum; 250 g/ha,60
same,"Plant response rating (0 to 100), Sorghum",sorghum; Rate 4 g/ha,30
same,"Plant response rating (0 to 100), Sorghum",sorghum; Rate 16 g/ha,40
same,"Plant response rating, Chickweed",chickweed; 62 g/ha,50
same,"Plant response rating, Chickweed",chickweed; 250 g/ha,80
same,"Plant response rating (0 to 100), Chickweed",chickweed; Rate 4 g/ha,20
same,"Plant response rating (0 to 100), Chickweed",chickweed; Rate 16 g/ha,50
same,"Plant response rating (0 to 100), Rice Japonica","rice; POSTEMERGENCE section, flood test, Rate 4 g/ha",10
same,"Plant response rating (0 to 100), Rice Japonica","rice; Rate 16 g/ha, under POSTEMERGENCE head (flood test species)",30
same,Plant response rating Rice Japonica,rice; 62 g/ha,50
same,Plant response rating Rice Japonica,rice; 250 g/ha,60
same,"Plant response rating, Blackgrass",blackgrass; 62 g/ha,50
same,"Plant response rating, Blackgrass",blackgrass; 250 g/ha,70
same,"Plant response rating (0 to 100), Blackgrass",blackgrass; Rate 4 g/ha,10
same,"Plant response rating (0 to 100), Blackgrass",blackgrass; Rate 16 g/ha,40
same,"Plant response rating, Soybean","soybean [7]; POSTEMERGENCE, Rate 50 g/ha",8
same,"Plant response rating, Soybean","soybean [7]; PREEMERGENCE, Rate 50 g/ha",0
same,"Plant response rating, Soybean","soybean [7]; Rate 200 g/ha, POSTEMERGENCE",8
same,"Plant response rating, Soybean","soybean [7]; Rate 200 g/ha, PREEMERGENCE",3
same,"Plant response rating, Barley","barley [8]; POSTEMERGENCE, Rate 50 g/ha",4
same,"Plant response rating, Barley","barley [8]; POSTEMERGENCE, Rate 200 g/ha",5
same,"Plant response rating, Barley","barley [8]; PREEMERGENCE, Rate 50 g/ha",0
same,"Plant response rating, Barley","barley [8]; Rate 200 g/ha, PREEMERGENCE",0
